The data set is described as follows: gradient 5% acetonitrile 3 min, to 50% in 2 min, to 85% in 15 min, held 3 min, 100 µL/min. To be noted: column: Zorbax Extend-C18 2.1 x 50 mm; eluents: water / acetonitrile, 0.1% formic acid. Summed up:
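Data were gathered over 3 months by HPLC coupled to a quadrupole time-of-flight mass spectrometer, operated in positive and negative ionization mode. Mixtures of ~100 pure standards ran on a Zorbax Extend-C18 column (2.1 × 50 mm, 1.8 μm) at 100 μL/min, with water and acetonitrile each containing 0.1% formic acid and dead and dwell volumes of 40 μL and 900 μL. Retention time was read from adduct peaks picked by computer and checked manually.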
Turning to `CCOc1ccc(C(=O)N2CCC3(CC2)N=C(c2ccc(Cl)cc2)NO3)cc1`, the RP-LC retention time came out at 922 s. In the case of `COc1ccc(-c2noc(-c3cccnc3N3CCN(c4ccc(OC)cc4)CC3)n2)cc1`, the RP-LC retention time was determined as 1070 s. Next, `O=C(CCn1nnc2cc(-c3noc(COc4ccccc4)n3)ccc21)N1CCOCC1`: 826 s; `CCOC(=O)c1c(C)c(CCC(=O)N2CCCCCC2)n(CC)c1C`: 985 s; `COCC1CN(Cc2cccc3[nH]ccc23)CC12CCNCC2` (stereo not given): 510 s. Regarding `CCS(=O)(=O)N1CC(=O)N(c2ccc(C(C)C)cc2)C(C)(C(=O)NCc2ccc(F)cc2)C1` (stereo not given), the RP-LC retention time stood at 872 s.

As to `COCCN1C(=O)CCc2cc(NS(=O)(=O)c3cc(C)ccc3C)ccc21`, the RP-LC retention time was found to be 1060 s. Next, `CCOc1ccc2ncc(S(=O)(=O)c3ccc(Cl)cc3)c(N3CCN(CC)CC3)c2c1`: 685 s. With `CCOc1ccccc1NC(=O)Cn1cnc2nc(N3CCCC(C(=O)NC4CC4)C3)sc2c1=O` (stereo not given) the figure was 723 s; with `COc1ccc(OC)c(NC(=O)N2c3ccccc3CC2c2nc(C3CC3)no2)c1` (stereo not given), 1110 s; with `O=C(CN1C(=O)C2CCCCN2c2ccc(C(=O)N3CCCC3)cc21)NCC1CCCO1` (stereo not given), 672 s. Take `CC(C)CC(=O)N1CC(c2nc(-c3ccccc3)no2)C2(CCOCC2)C1` (stereo not given): the RP-LC retention time was 896 s. With `COc1ccc(NC(=O)N2c3ccccc3CC2c2nc(C(C)C)no2)c(C)c1` (stereo not given) the figure was 1220 s; with `Cc1ccc(S(=O)(=O)N2CCC(C(=O)NCc3cscn3)CC2)cc1C`, 748 s; with `CCOC(=O)c1[nH]c(C)c(CCC(=O)N2CCC(C(=O)NCc3ccc(OC)cc3OC)CC2)c1C`, 799 s. Regarding `Cc1ccccc1NC(=O)NCCc1nc2cccnc2n1C1CCCC1`, the RP-LC retention time turned out to be 708 s. As to `O=C1NCCCn2nc(C3CCN(S(=O)(=O)c4ccc5c(c4)CCC5)CC3)cc21`, the RP-LC retention time is 800 s. `CC(C)c1noc(-c2ccn3c(CC(=O)N4CCCCC4)nnc3c2)n1` had an RP-LC retention time of 721 s. With `COc1ccc(-n2cc(C(=O)OCC(=O)OC(C)(C)C)c3ccccc3c2=O)cc1` the figure was 1140 s; with `COc1ccc(Nc2cc(C)nc(N)n2)cc1`, 644 s; with `COCCN1C(=O)[C@H]2CN(Cc3cc(OC)ccc3OC)C[C@H]2C1=O`, 595 s. `Cc1cccc(N2CCN(C(=O)Cn3ccc4ccc(N5CCOCC5)nc43)CC2)c1` yielded an RP-LC retention time of 959 s.

In the case of `Cn1ncc2c(N3CCSCC3)nc(C(=O)NCCc3ccncc3)nc21`, the RP-LC retention time turned out to be 559 s.

The compound `CCCNc1cc(N2CCC(CCC(=O)NCc3ccc(N4CCOCC4)cc3)CC2)ncn1` yielded an RP-LC retention time of 631 s. Next, `O=C(c1ccc(Cl)cc1Cl)N1CCN(c2cc(-c3ccccc3)[nH]n2)CC1`: 936 s; `O=C(NCc1nc(-c2ccccc2)no1)c1cc(C2CC2)on1`: 822 s; `CCOC(=O)c1cnc2nc(C)ccc2c1Nc1cc(F)cc(F)c1`: 736 s. With `CCOc1ccc(-c2noc(CSc3nccn3-c3ccccc3)n2)cc1OC` the figure was 856 s; with `COCCNC(=O)C1CCCN(C(=O)c2cc(C)cc(C)c2)C1` (stereo not given), 686 s; with `CN(C)c1nn(CC(=O)NCc2cccc(C(F)(F)F)c2)cc1-c1ccccc1`, 984 s. `Cc1nc(NC(=O)C2CCCN(c3ccc(-n4cccn4)nn3)C2)sc1C` (stereo not given) returned an RP-LC retention time of 699 s. Next, `CCCNC(=O)CN1C(=O)CCn2nc(-c3cn(C)c4ccccc34)cc21`: 730 s; `Cc1ccc2c(c1)N(S(C)(=O)=O)CCC(C(=O)Nc1ccc(Br)cc1F)O2` (stereo not given): 1030 s; `CCCNC(=O)N1CCCN(S(C)(=O)=O)CC1`: 582 s. With `COc1cccc(N2CCN(c3ccnc(SCC(=O)Nc4cccc(Cl)c4)n3)CC2)c1` the figure was 827 s.

Compound `Cc1nnc(C2CCCN(C(=O)COc3ccccc3)C2)s1` (stereo not given) showed an RP-LC retention time of 653 s. Take `N#Cc1cccc(C(=O)N2CCN3CCS(=O)(=O)N(C4CC4)C(=O)C3C2)c1` (stereo not given): the RP-LC retention time worked out at 714 s. Next, `Cc1cccc(-c2nc3sc(N4CCCCC4)nn3c2NC(=O)c2ccnn2C)c1`: 885 s.

In turn, `O=C(Cn1nc2c3ccccc3ncn2c1=O)Nc1ccc(Cl)cc1` showed an RP-LC retention time of 727 s. With `O=C(Cc1ccccc1Br)Nc1cc(-c2cccs2)no1` the figure was 973 s; with `O=C(Cn1ccc2ccn(Cc3ccccc3F)c2c1=O)NCc1ccc2c(c1)OCO2`, 894 s. `CN1CCN(C(=O)c2csc(N3CCN(c4ccc(Cl)cc4)CC3)n2)CC1` showed an RP-LC retention time of 686 s. With `Cc1[nH]nc(-c2c(C)sc(C)c2S(=O)(=O)NCCc2ccc(Cl)cc2)c1C` the figure was 1130 s. Next, `Cc1cc(Cl)ccc1OCc1nc(-c2ccc3c(c2)nnn3CCC(=O)N2CCCCCC2)no1`: 1180 s; `O=C(Nc1ccccc1)N1CC(n2ccnc2)C1`: 569 s. Next, `CNc1nc(Nc2cccc(OC)c2)nc2ccccc12`: 650 s; `COc1ccc(F)cc1S(=O)(=O)N1CCC(C(=O)Nc2cc(C)on2)CC1`: 745 s.

The compound `Cc1c(CC(=O)NCc2cccnc2)c(=O)n2nc(-c3ccccc3)nc2n1C` displayed an RP-LC retention time of 575 s. `COc1ccc2[nH]cc(C3=CCNCC3)c2c1` displayed an RP-LC retention time of 648 s.

Regarding `Cc1cc(-c2nnc(-c3ccccc3)o2)c(C)n1CC(=O)Nc1cccc(F)c1`, the RP-LC retention time is 938 s. Regarding `Cc1ccc(Cl)cc1NC(=O)Cn1c(C)nc2c(sc3nc(-c4ccccc4)ccc32)c1=O`, the RP-LC retention time turned out to be 1140 s. With `CCN1C(=O)c2cc(S(=O)(=O)Nc3ccccc3C)ccc2Oc2cccnc21` the figure was 1000 s; with `COc1cccc(Cn2c(C)c(CNCc3ccc(C)o3)c(C(=O)O)c2C)c1`, 715 s.

On to `CC(Oc1ccc(Cl)cc1)C(=O)N1CCN(c2cc(-c3ccccc3)[nH]n2)CC1` (stereo not given), for which the RP-LC retention time stood at 884 s.

For `CC(C)c1ccc(NC(=O)Cn2cnc3nc(N4CCC(C(=O)NC5CC5)CC4)sc3c2=O)cc1`, the RP-LC retention time was 748 s. The compound `Cc1ccc(-n2cc(C(=O)NCCCOC(C)C)nn2)cc1` showed an RP-LC retention time of 810 s. With `O=C(Nc1cccnc1)C1(CCO)CCN(c2ncccn2)C1` (stereo not given) the figure was 529 s; with `O=C1C(OC2CCN(S(=O)(=O)c3ccc(C(F)(F)F)cc3)CC2)CCN1CC1CC1` (stereo not given), 925 s; with `Cc1cccc(NC(=O)NCC2CCOCC2)c1C`, 704 s. Next, `O=S(=O)(c1cc(-c2nnc(C3CCC3)o2)co1)N1CCC(N2CCCCC2)CC1`: 642 s; `CCN(CC)CCNC(=O)c1ccc2nc(C(C)C)oc2c1`: 605 s. Next, `CCCCC(=O)Nc1ncn[nH]1`: 568 s; `CCCn1ccc2sc(C)c(C(=O)N3CCN(c4ccc(OC)cc4)CC3)c2c1=O`: 762 s; `O=C(c1cccs1)N1CCN(c2ccc(-c3noc(C4CCC4)n3)cc2)CC1`: 1070 s.

In turn, `CCC1Oc2ccc(S(=O)(=O)N3CCC(C(=O)NCc4cccs4)CC3)cc2NC1=O` (stereo not given) gave an RP-LC retention time of 807 s.

For `CCC1Oc2ccc(S(=O)(=O)N3CCC(C(=O)Nc4cccc(Cl)c4C)CC3)cc2NC1=O` (stereo not given), the RP-LC retention time was determined as 947 s. With `CC(C)c1nnc(-c2coc(S(=O)(=O)N3CCN(C4CCCCC4)CC3)c2)o1` the figure was 644 s; with `CCN(Cc1ccc(OC)cc1)Cc1cc(=O)n2ccccc2n1`, 585 s.

In the case of `Cc1ccc(C)c(N2C(=O)CN(S(=O)(=O)c3ccccc3)CC2(C)C(=O)NC2CCCC2)c1` (stereo not given), the RP-LC retention time was 991 s.

On to `O=C(NCC1CC1)c1cn(-c2ncccc2-c2nc(-c3ccccc3)no2)cn1`, for which the RP-LC retention time worked out at 848 s. With `Cc1[nH]nc(-c2c(C)sc(C)c2S(=O)(=O)NCc2ccc(Br)cc2)c1C` the figure was 1130 s. With `O=C1CCCc2c1cc(C(=O)NCc1cccnc1)c(=O)n2-c1ccc(C(F)(F)F)cc1` the figure was 644 s; with `CC(C)CN1C(=O)c2ccccc2C(C(=O)NCCCN2CCCC2=O)C1c1cccs1` (stereo not given), 740 s; with `O=C1c2ccccc2C(=O)C1c1ccccn1`, 749 s.

In turn, `CCOC(=O)CC(=O)CSc1ccc2nnc(-c3cccs3)n2n1` came in with an RP-LC retention time of 671 s. Next, `COc1ccc(CC(=O)Nc2cc3c(cc2SC(C)C)n(C)c(=O)n3C)cc1`: 923 s; `Cc1cnc(-c2ccncc2)n1CC1CCN(S(=O)(=O)c2ccc3c(c2)OCCO3)C1` (stereo not given): 626 s. Next, `Cc1ccc(CCNC(=O)C2CCCN(c3ncnc4c3nc3n4CCCCC3)C2)cc1` (stereo not given): 897 s; `CCN1C(=O)CCc2cc(NC(=O)c3n[nH]c4ccccc34)ccc21`: 761 s; `CCc1ccc(NC(=O)CSc2ccc(N3CCCC(C(=O)NC4CC4)C3)nn2)cc1` (stereo not given): 695 s.

(Values after the METLIN SMRT retention time set (Domingo-Almenara et al. 2019).)
